In this assay the test system is Alzheimer's disease model mice.

The structures appear in SMILES notation.

Method: With reference to NPL 6, Alzheimer's disease model mice were prepared according to the following procedure and the improvement effect of acetic acid was evaluated.
Taking the day when the administration was started as Day 1, amyloid was injected on Day 3. Specifically, an animal was anesthetized by intraperitoneally administering 40 mg/kg of pentobarbital sodium (Tokyo Chemical Industry Co., Ltd.) (amount of liquid administered: 10 mL/kg). After anesthesia, levobupivacaine hydrochloride (Popscaine (registered tradename) 0.25% inj., Maruishi Pharmaceutical Co. Ltd.) was subcutaneously administered (0.1 mL) to the scalp. After anesthesia, hair of a parietal region of the animal was cut and the head was fixed on a brain stereotaxic apparatus.
The scalp was disinfected with ethanol for disinfection and then was cut to expose the cranial bone. […]
An animal was placed in any one arm of the Y-shaped maze and was allowed to freely sleuth in the maze for 8 minutes. The order of the arms that the animal moved during the measurement period was recorded and the number of the movements to arms was counted and taken as a total entry number. […]
A spontaneous alternation action rate was calculated with the following formula. […]

Consider `CC(=O)[O-].[Na+]` [Sodium acetate, sodium acetate], for which the “Spontaneous alternation action rate (%)” value (Amyloid β injection group, 150 mM sodium acetate with drinking water, Y-maze 8 minutes, p < 0.01 vs Amyloid β + physiological saline) was 67.5%. Also, where the note is “intake of 150 mM sodium acetate with drinking water”, the “cognitive function of Alzheimer disease model mice” value is “improved a cognitive function”.

These data come from US20200113854A1, “Composition for Improving Brain Function” (MORINAGA MILK INDUSTRY CO., LTD., priority 2017, published 2020).
